Reference: patent US8114886B2, “Pyridylmethylsulfone derivative” (Daiichi Sankyo Company, Limited, priority 2005, dated 2012)

Columns and labels:
[1] = system: β-amyloid protein (Aβ) secreted by E35 cells (H4 cells with APP751 gene); test: Screening system using E35 cells for inhibition of production/secretion of β-amyloid protein (sandwich ELISA of Aβ in culture medium); format: cell-based, human; conditions: Homo sapiens, 24 hours with compound, Aβ in culture supernatant by ELISA, read-out: Inhibitory Activity for Production of A(EC50)
Description: The activity of the compound inhibiting β-amyloid protein production was measured on E35 cells prepared by introducing APP751 gene, a gene of a human wild type β-amyloid protein precursor protein, to human glioma cells (H4 cells), by quantifying the amount of β-amyloid protein (Aβ) secreted to the culture medium by means of a sandwich type Enzyme-Linked Immunosorbent Assay (ELISA) method.
That is, E35 cells inoculated on a 96-well plate were cultured in an incubator at 37° C. which was maintained at equilibrium with 5% carbon dioxide, using Dulbecco's Modified Eagle's Medium containing inactivated 10% fetal bovine serum as the culture medium. After 24 hours from the inoculation, a test compound dissolved in a DMSO solution was added. The DMSO solution of the test compound was prepared at a concentration of 2000 times of the final concentration, such that the DMSO concentration in the culture medium would be 0.05%. After culturing for another 24 hours, the culture supernatant was recovered, and this was added to a 96-well plate for ELISA onto which a monoclonal antibody against Aβ, 25-1, was solid-phased. The plate was incubated at 4° C. for 16 to 20 hours. The plate was washed with phosphate buffer solution (pH 7.4), and then a biotinylated monoclonal antibody against Aβ, MA32-40, was added thereto. The plate was left to stand at 4° C. for 2 hours. The plate was washed again with phosphate buffer solution, and then alkaline phosphatase-conjugated streptavidin was added to conjugate streptavidin to biotin. Subsequently, the plate was washed with phosphate buffer solution. To this, Blue Phos (Kirkegaard & Perry Laboratories, Inc.) was added. After incubating the plate for an appropriate time, the reaction was terminated with an acid, and the absorbance for each well was measured. The amount of Aβ contained in the culture supernatant was determined from a calibration curve which was produced separately, and the amount was compared with that of control cells to which the compound was not added. Thus, the concentration at which 50% of the Aβ production is inhibited (EC50 value) was calculated. In addition, the 25-1 antibody and MA32-40 antibody used in ELISA were mouse monoclonal antibodies derived from the hybridoma cell clone lines, which were each produced and selected according to a standard method using Aβ25-35 and Aβ1-8 as antigens, respectively, and which specifically recognize their respective antigens. […]
The scores indicate ++++ for the case where EC50 was 5 nM or less; +++ for the case where EC50 was 5 to 50 nM; ++ for the case where EC50 was 50 to 500 nM; and + for the case where EC50 was 500 nM to 5 μM.

Row | SMILES | EC50 [1] [nM] | melting point
1 | CNC(=O)c1cc(C)c(C(c2cc(F)ccc2F)S(=O)(=O)c2ccc(Cl)cc2)cn1 (stereo not drawn) [Example 4, 5-[[(4-Chlorophenyl)sulfonyl](2,5-difluorophenyl)methyl]-N,4-dimethylpyridine-2-carboxamide] | ≤ 5 | 200 to 201 °C
2 | Cc1cc(C(=O)N(C)C)ncc1C(c1cc(F)ccc1F)S(=O)(=O)c1ccc(Cl)cc1 (stereo not drawn) [Example 5, 5-[[(4-Chlorophenyl)sulfonyl](2,5-difluorophenyl)methyl]-N,N,4-trimethylpyridine-2-carboxamide] | 50 to 500 | 207 to 208 °C
3 | Cc1cc(C(N)=O)ncc1C(c1cc(F)ccc1F)S(=O)(=O)c1ccc(Cl)cc1 (stereo not drawn) [Example 9, 5-[[(4-Chlorophenyl)sulfonyl](2,5-difluorophenyl)methyl]-4-methylpyridine-2-carboxamide] | ≤ 5 | 241 to 242 °C
4 | CNC(=O)c1cc(C)c(C(c2cc(F)ccc2F)S(=O)(=O)c2ccc(F)cc2)cn1 (stereo not drawn) [Example 13, 5-[(2,5-difluorophenyl)[(4-fluorophenyl)sulfonyl]methyl]-N, 4-dimethylpyridine-2-carboxamide] | ≤ 5 | 201 to 202 °C
5 | Cc1cc(C(=O)N(C)C)ncc1C(c1cc(F)ccc1F)S(=O)(=O)c1ccc(F)cc1 (stereo not drawn) [Example 14, 5-[(2,5-Difluorophenyl)[(4-fluorophenyl)sulfonyl]methyl]-N,N,4-trimethylpyridine-2-carboxamide] | 50 to 500 | 176 to 177 °C
6 | CCNC(=O)c1cc(C)c(C(c2cc(F)ccc2F)S(=O)(=O)c2ccc(F)cc2)cn1 (stereo not drawn) [Example 16, 5-[(2,5-Difluorophenyl)[(4-fluorophenyl)sulfonyl]methyl]-N-ethyl-4-methylpyridine-2-carboxamide] | ≤ 5 | 191 to 193 °C
7 | Cc1cc(C(=O)NCCO)ncc1C(c1cc(F)ccc1F)S(=O)(=O)c1ccc(F)cc1 (stereo not drawn) [Example 17, 5-[(2,5-Difluorophenyl)[(4-fluorophenyl)sulfonyl]methyl]-N-(2-hydroxyethyl)-4-methylpyridine-2-carboxamide] | ≤ 5 | 153 to 154 °C
8 | CCN(C)C(=O)c1cc(C)c(C(c2cc(F)ccc2F)S(=O)(=O)c2ccc(F)cc2)cn1 (stereo not drawn) [Example 18, 5-[(2,5-Difluorophenyl)[(4-fluorophenyl)sulfonyl]methyl]-N-ethyl-N,4-dimethylpyridine-2-carboxamide] | 50 to 500 | 165 to 167 °C
9 | Cc1cc(C(=O)N(C)CCO)ncc1C(c1cc(F)ccc1F)S(=O)(=O)c1ccc(F)cc1 (stereo not drawn) [Example 19, 5-[(2,5-Difluorophenyl)[(4-fluorophenyl)sulfonyl]methyl]-N-(2-hydroxyethyl)-N,4-dimethylpyridine-2-carboxamide] | 500 to 5000 | 123 to 125 °C
10 | COc1ccc(S(=O)(=O)C(c2cnc(C(=O)NCCO)cc2C)c2cc(F)ccc2F)cc1 (stereo not drawn) [Example 43, 5-[(2,5-Difluorophenyl)[(4-methoxyphenyl)sulfonyl]methyl]-N-(2-hydroxyethyl)-4-methylpyridine-2-carboxamide] | 5 to 50 | 134 to 135 °C
11 | COc1ccc(S(=O)(=O)C(c2cnc(C(=O)NCCO)cc2C)c2cc(F)ccc2F)cc1F (stereo not drawn) [Example 47, 5-[(2,5-Difluorophenyl)[(3-fluoro-4-methoxyphenyl)sulfonyl]methyl]-N-(2-hydroxyethyl)-4-methylpyridine-2-carboxamide] | 5 to 50 | 137 to 138 °C
12 | Cc1cc(C(=O)NCCC[S+](C)[O-])ncc1C(c1cc(F)ccc1F)S(=O)(=O)c1ccc(F)cc1 (stereo not drawn) [Example 73, 5-[(2,5-Difluorophenyl)[(4-fluorophenyl)sulfonyl]methyl]-4-methyl-N-[3-(methylsulfinyl)propyl]pyridine-2-carboxamide] | ≤ 5 | 170 to 173 °C
13 | Cc1cc(C(=O)NCCCS(C)(=O)=O)ncc1C(c1cc(F)ccc1F)S(=O)(=O)c1ccc(F)cc1 (stereo not drawn) [Example 74, 5-[(2,5-Difluorophenyl)[(4-fluorophenyl)sulfonyl]methyl]-4-methyl-N-[3-(methylsulfonyl)propyl]pyridine-2-carboxamide] | ≤ 5 | 182 to 185 °C
14 | Cc1cc(C(=O)NC(CO)CO)ncc1C(c1cc(F)ccc1F)S(=O)(=O)c1ccc(F)cc1 (stereo not drawn) [Example 75, 5-[(2,5-Difluorophenyl)[(4-fluorophenyl)sulfonyl]methyl]-N-[2-hydroxy-1-(hydroxymethyl)ethyl]-4-methylpyridine-2-carboxamide] | ≤ 5 | 150 to 152 °C
15 | Cc1cc(C(=O)N2CCC(O)CC2)ncc1C(c1cc(F)ccc1F)S(=O)(=O)c1ccc(F)cc1 (stereo not drawn) [Example 76, 1-[[5-[(2,5-Difluorophenyl)[(4-fluorophenyl)sulfonyl]methyl]-4-methylpyridin-2-yl]carbonyl]piperidin-4-ol] | 500 to 5000 | 171 to 173 °C

Continued, values first:

Row | EC50 [1] [nM] | melting point | SMILES
16 | 500 to 5000 | 165 to 167 °C | Cc1cc(C(=O)N2CCOCC2)ncc1C(c1cc(F)ccc1F)S(=O)(=O)c1ccc(F)cc1 (stereo not drawn) [Example 77, 4-[[5-[(2,5-Difluorophenyl)[(4-fluorophenyl)sulfonyl]methyl]-4-methylpyridin-2-yl]carbonyl]morpholine]
17 |  | 175 to 177 °C | Cc1cc(C(=O)NCOCCO)ncc1C(c1cc(F)ccc1F)S(=O)(=O)c1ccc(F)cc1 (stereo not drawn) [Example 112, 5-[(2,5-Difluorophenyl)[(4-fluorophenyl)sulfonyl]methyl]-N-[(2-hydroxyethoxy)methyl]-4-methylpyridine-2-carboxamide]
18 |  | 121 to 123 °C | Cc1cc(C(=O)NCOCc2cccnc2)ncc1C(c1cc(F)ccc1F)S(=O)(=O)c1ccc(F)cc1 (stereo not drawn) [Example 113, 5-[(2,5-Difluorophenyl) [(4-fluorophenyl)sulfonyl]methyl]-4-methyl-N-[(pyridin-3-ylmethoxy)methyl]pyridine-2-carboxamide]
19 |  | 200 to 201 °C | Cc1cc(C(N)=O)ncc1C(c1c(F)ccc(F)c1F)S(=O)(=O)c1ccc(F)c(F)c1 (stereo not drawn) [Example 121, 5-[[(3,4-Difluorophenyl)sulfonyl](2,3,6-trifluorophenyl)methyl]-4-methylpyridine-2-carboxamide]
20 |  | 119 to 120 °C | Cc1cc(C(=O)NCO)ncc1C(c1c(F)ccc(F)c1F)S(=O)(=O)c1ccc(F)c(F)c1 (stereo not drawn) [Example 122, 5-[[(3,4-Difluorophenyl)sulfonyl](2,3,6-trifluorophenyl)methyl]-N-(hydroxymethyl)-4-methylpyridine-2-carboxamide]
21 |  | 237 to 240 °C | Cc1cc(C(N)=O)ncc1C(c1c(F)ccc(F)c1F)S(=O)(=O)c1ccc2ccoc2c1 (stereo not drawn) [Example 126, 5-[(1-Benzofuran-6-ylsulfonyl)(2,3,6-trifluorophenyl)methyl]-4-methylpyridine-2-carboxamide]
22 |  | 185 to 186 °C (dec.) | Cc1cc(C(=O)NCO)ncc1C(c1c(F)ccc(F)c1F)S(=O)(=O)c1ccc2ccoc2c1 (stereo not drawn) [Example 127, 5-[(1-Benzofuran-6-ylsulfonyl)(2,3,6-trifluorophenyl)methyl]-N-(hydroxymethyl)-4-methylpyridine-2-carboxamide]
23 |  | 190 to 192 °C | Cc1cc(C(=O)NCO)ncc1C(c1c(F)ccc(F)c1F)S(=O)(=O)c1ccc(C(F)(F)F)cc1 (stereo not drawn) [Example 129, N-(hydroxymethyl)-4-methyl-5-[[[4-(trifluoromethyl)phenyl]sulfonyl](2,3,6-trifluorophenyl)methyl]pyridine-2-carboxamide]
24 |  | 190 to 193 °C | Cc1cc(C(=O)NCS)ncc1C(c1cc(F)ccc1F)S(=O)(=O)c1ccc(F)cc1 (stereo not drawn) [Example 132, 5-[(2,5-Difluorophenyl)[(4-fluorophenyl)sulfonyl]methyl]-N-(mercaptomethyl)-4-methylpyridine-2-carboxamide]
25 |  | 184 to 186 °C | Cc1cc(C(=O)N(C)CO)ncc1C(c1cc(F)ccc1F)S(=O)(=O)c1ccc(F)cc1 (stereo not drawn) [Example 133, 5-[(2,5-Difluorophenyl)((4-fluorophenyl)sulfonyl)methyl]-N-(hydroxymethyl)-N,4-dimethylpyridine-2-carboxamide]
26 |  | 181 to 183 °C | Cc1cc(C(=O)NCO)ncc1C(c1c(F)ccc(F)c1F)S(=O)(=O)c1ccc(C(F)F)nc1 (stereo not drawn) [Example 136, 5-[[[6-(Difluoromethyl)pyridin-3-yl]sulfonyl](2,3,6-trifluorophenyl)methyl]-N-(1-hydroxymethyl)-4-methylpyridine-2-carboxamide]
